Data taken from ChEMBL document CHEMBL1155024, “Microbial transformation of cinobufagin by Syncephalastrum racemosum” (J Nat Prod, 2008).

These molecules were tested on Bel-7402 (assay: Cytotoxicity against human Bel7402 cells by MTT assay).
Type: functional, cell-based

**Q.** For `CC(=O)O[C@H]1[C@H]2O[C@]23[C@@H]2CC[C@@H]4C[C@@H](O)CC[C@]4(C)[C@H]2CC[C@]3(C)[C@H]1c1ccc(=O)oc1` [CINOBUFAGIN], which IC50 is on record?
**A.** Its IC50 is 100 nM.

**Q.** For `CC(=O)O[C@H]1[C@H]2O[C@]23[C@@H]2CC[C@@H]4C[C@@H](O)CC[C@]4(C)[C@H]2C[C@@H](O)[C@]3(C)[C@H]1c1ccc(=O)oc1`, which IC50 is on record?
**A.** The IC50 was 370 nM.

**Q.** Which IC50 does the source give for `CC(=O)O[C@H]1[C@H]2O[C@]23[C@@H]2CC[C@]4(O)C[C@@H](O)CC[C@]4(C)[C@H]2C[C@@H](O)[C@]3(C)[C@H]1c1ccc(=O)oc1` here?
**A.** The IC50 was 660 nM.

**Q.** How did the IC50 turn out when `CC(=O)O[C@H]1[C@H]2O[C@]23[C@@H]2[C@@H](O)C[C@@H]4C[C@@H](O)CC[C@]4(C)[C@H]2CC[C@]3(C)[C@H]1c1ccc(=O)oc1` was run?
**A.** Its IC50 is 540 nM.

**Q.** How did the IC50 turn out when `CC(=O)O[C@H]1[C@H]2O[C@]23[C@@H]2CC[C@]4(O)C[C@@H](O)CC[C@]4(C)[C@H]2CC[C@]3(C)[C@H]1c1ccc(=O)oc1` [CINOBUFOTALIN] was run?
**A.** The IC50 was 1210 nM.
